Test results as given in patent publication US5852007A, “Cysteine and serine protease inhibitors containing D-amino acid at the P2 position, methods of making same, and methods of using same” (priority 1997, dated 1998).
Square brackets hold non-standard residues; d marks the D form. Peptide text beside a SMILES is read from it. * marks the point of attachment. ξ: configuration not given here. d(hPhe) = N[C@H](CCc1ccccc1)C(=O)O; ξαMeL = CC(C)CC(C)(N)C(=O)O; Abu = CC[C@H](N)C(=O)O; Bn = c1ccc(C*)cc1; Ms = CS(=O)(=O)*

Tests used:
Assay type in all cases: biochemical
thrombin = target: T1, thrombin (Homo sapiens, UniProt P00734); test: Inhibition of thrombin; settings: Table III, 10 uM; for inhibition at 10 µM: read-out: Thrombin % I @ 10 uM
T1 construct: purchased Sigma Chem. Co. T-7009

cathepsin L = target: T2, cathepsin L (Homo sapiens, UniProt P07711); test: Inhibition of cathepsin L; settings: Table III, 1 uM; for inhibition at 1 µM: read-out: Cat L % I @ 1 uM
T2 construct: purchased Calbiochem 219402
Description: (§1) Additionally,the order of reagents added to the plate was altered because both enzymes are constitutively active. Following inhibitor addition to the plates, appropriate 2× concentrated stock dilutions of the enzyme preparations were made in assay buffer and 100 μl added to each well. The assay was initiated by addition of 100 μl of 2× concentrated stock dilution of substrate in assay buffer.

α-chymotrypsin = target: T3, α-chymotrypsin (Bos taurus, UniProt P00766); test: Inhibition of α-chymotrypsin; settings: Table III, 10 uM; for inhibition at 10 µM: read-out: Chymotrypsin % I @ 10 uM
T3 construct: purchased Sigma Chem. Co. C-3142
Description: Additionally, because α-chymotrypsin is not a calcium sensitive enzyme and is constitutively active, following addition of inhibitor stocks to the 96 well plates, 100 μl of a 2-fold concentrated stock of enzyme in dilution buffer was first added and the reaction started by addition of 100 μl of a 2-fold concentrated stock of substrate in assay buffer. Substrate hydrolysis was monitored every 5 minutes up to 30 minutes using a Fluoroskan II ([…]).

[1] = target: T4, Recombinant human calpain I (Homo sapiens, UniProt P07384); test: Inhibition of calpain I activity; settings: Table III
T4 construct: made in house
T4 sequence (P07384 1-714): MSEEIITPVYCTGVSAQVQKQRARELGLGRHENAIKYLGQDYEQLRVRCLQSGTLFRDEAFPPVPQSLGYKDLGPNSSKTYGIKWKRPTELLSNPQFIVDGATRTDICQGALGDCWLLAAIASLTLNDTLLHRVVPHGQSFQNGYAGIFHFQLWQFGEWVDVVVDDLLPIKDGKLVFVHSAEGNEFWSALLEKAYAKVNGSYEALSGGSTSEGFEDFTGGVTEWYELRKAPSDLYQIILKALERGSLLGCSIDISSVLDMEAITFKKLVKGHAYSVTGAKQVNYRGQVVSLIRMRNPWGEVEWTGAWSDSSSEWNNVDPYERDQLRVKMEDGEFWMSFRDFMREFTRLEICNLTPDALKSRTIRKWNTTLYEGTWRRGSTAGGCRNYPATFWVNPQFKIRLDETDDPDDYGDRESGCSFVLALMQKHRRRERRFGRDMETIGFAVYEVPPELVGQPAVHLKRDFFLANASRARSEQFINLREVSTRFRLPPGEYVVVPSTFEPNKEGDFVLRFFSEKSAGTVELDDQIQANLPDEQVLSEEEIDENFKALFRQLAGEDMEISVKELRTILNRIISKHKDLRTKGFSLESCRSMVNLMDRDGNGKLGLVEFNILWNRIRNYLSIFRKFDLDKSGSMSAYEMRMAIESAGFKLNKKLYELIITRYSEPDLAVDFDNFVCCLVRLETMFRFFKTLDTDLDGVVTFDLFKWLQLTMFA
Description: To evaluate inhibitory activity, stock solutions (40 times concentrated) of exemplary compounds of the invention were prepared in 100% anhydrous DMSO and 5 μL of each inhibitor preparation were aliquoted into each of three wells of a 96-well plate. Recombinant human calpain I, prepared by the method of Meyer et al. (Biochem. […] To start the reaction, 20 μL of 50 mM CaCl2 in assay buffer was added to all wells of the plate, excepting three, which were used as background signal baseline controls. Substrate hydrolysis was monitored every 5 minutes for a total of 30 minutes. […] Inhibition of calpain I activity was calculated as the percent decrease in the rate of substrate hydrolysis in the presence of inhibitor (VI) relative to the rate in its absence (VO). Comparison between VO and VI was made within the linear range for substrate hydrolysis. For screening, compounds were tested at 10, 1.0, and 0.1 μM. […] The results were plotted as % inhibition versus log inhibitor concentration and the IC50 was calculated from linear regression of the data. Apparent second order rate constants were determined from analysis of reaction progress curves under pseudo-first order conditions. Each determination represents the means of three or more independent single cuvette analyses continually monitored via a Perkin-Elmer LS50B spectrofluorimeter. The rate of inhibition of hydrolysis was obtained by fitting the curve to the exponential equation (1): […]

cathepsin B = target: T5, cathepsin B (Homo sapiens, UniProt P07858); test: Inhibition of cathepsin B; settings: Table III; for inhibition at 1 µM: read-out: Cat B % I @ 1 uM; for IC50: read-out: Cat B IC50
T5 construct: purchased Calbiochem 219364
Description: as §1

T2 sequence (P07711 114-288 limits assumed): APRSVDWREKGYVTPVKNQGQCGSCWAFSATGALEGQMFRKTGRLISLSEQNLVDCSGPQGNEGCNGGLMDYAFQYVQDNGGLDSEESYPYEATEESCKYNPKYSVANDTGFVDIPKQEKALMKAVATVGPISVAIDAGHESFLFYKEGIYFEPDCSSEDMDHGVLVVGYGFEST
T2 sequence (P07711 292-333 limits assumed): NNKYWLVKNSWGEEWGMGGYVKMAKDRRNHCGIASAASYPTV

Compound | inhibition at 10 µM (thrombin) | inhibition at 1 µM (cathepsin L) | inhibition at 10 µM (α-chymotrypsin) | inhibition at 0.1 µM ([1]; 0.1 uM) | inhibition at 1 µM (cathepsin B; 1 uM) | IC50 [1] | IC50 (cathepsin B) | Thrombin % I @ 10 uM (thrombin) | Cat L % I @ 1 uM (cathepsin L) | Chymotrypsin % I @ 10 uM (α-chymotrypsin) | Calpain % I @ 0.1 uM ([1]; 0.1 uM) | Cat B % I @ 1 uM (cathepsin B; 1 uM)
O=C[C@H](Cc1ccccc1)NC(=O)[C@H]1C[C@@H](OS(=O)(=O)c2ccccc2)CN1S(=O)(=O)c1ccccc1 [Compound 112] | 0% | 100% | 9% | 7% | 25% | – | – | – | – | – | – | –
O=C[C@H](Cc1ccccc1)NC(=O)[C@@H](Cc1ccccc1)NS(=O)(=O)c1ccccc1 [Compound 59] | 0% | 100% | 4% | 86% | 100% | 20 nM | 5 nM | – | – | – | – | –
CS(=O)(=O)N[C@H](CS(=O)(=O)Cc1ccccc1)C(=O)N[C@H](C=O)Cc1ccccc1 [Compound 80] | 4% | 100% | 8% | 90% | 99% | 15 nM | 46 nM | – | – | – | – | –
CC(C)C[C@@H](NS(C)(=O)=O)C(=O)N[C@H](C=O)Cc1ccccc1 [Compound 86] (Ms-[dL]-Phe-aldehyde) | 0% | 100% | 8% | 72% | 78% | 40 nM | – | – | – | – | – | –
CS(=O)(=O)N1Cc2ccccc2CC1C(=O)N[C@H](C=O)Cc1ccccc1 (single isomer, unassigned) [Compound 96] | – | – | – | – | – | 174 nM | – | 0% | 100% | 14% | 49% | 90%
Cc1noc(C)c1S(=O)(=O)N[C@H](COCc1ccccc1)C(=O)N[C@H](C=O)Cc1ccccc1 [Compound 55] | 2% | 100% | 12% | 87% | 90% | 25 nM | – | – | – | – | – | –
CN(Cc1ccccc1)C(=O)C[C@@H](NS(C)(=O)=O)C(=O)N[C@H](C=O)Cc1ccccc1 [Compound 78] | 0% | 100% | 0% | 94% | 100% | 12 nM | 6 nM | – | – | – | – | –
CN1CCN(C)C1[C@H](Cc1ccccc1)NC(=O)[C@@H](COCc1ccccc1)NS(C)(=O)=O [Compound 133] | 0% | 100% | 1% | 93% | 100% | 13 nM | – | – | – | – | – | –
CC(C)(C)OC(=O)N1CCCC[C@H](NC(=O)[C@@H](COCc2ccccc2)N(C(=O)OC(C)(C)C)S(C)(=O)=O)C1=O [Compound 127] | 0% | 7% | 1% | 6% | 36% | – | – | – | – | – | – | –
CS(=O)(=O)N[C@H](COCc1ccccc1)C(=O)N[C@H](C=O)CCCCNC(=O)OCc1ccccc1 [Compound 92] | 0% | 100% | 0% | 100% | 100% | 4 nM | – | – | – | – | – | –
CS(=O)(=O)N[C@H](CCc1ccccc1)C(=O)N[C@H](C=O)Cc1ccccc1 [Compound 62] (Ms-[d(hPhe)]-Phe-aldehyde) | 0% | 89% | 4% | 71% | 85% | 39 nM | – | – | – | – | – | –
CCS(=O)(=O)N[C@H](Cc1ccccc1)C(=O)N[C@H](C=O)Cc1ccccc1 [Compound 60] | 0% | 100% | 0% | 74% | 97% | 33 nM | – | – | – | – | – | –
O=C[C@H](Cc1ccccc1)NC(=O)[C@@H](Cc1ccccc1)NS(=O)(=O)c1cccc2cccnc12 [Compound 74] | 6% | 100% | 13% | 83% | 100% | 33 nM | – | – | – | – | – | –
CCNC(=O)OC[C@H](Cc1ccccc1)NC(=O)[C@H]1CCCN1S(=O)(=O)c1ccc(C)cc1 [Compound 123] | 0% | 14% | 2% | 7% | 16% | – | – | – | – | – | – | –
O=C[C@H](Cc1ccccc1)NC(=O)[C@@H](COCc1ccccc1)NC(=O)C(c1ccccc1)c1ccccc1 [Compound 45] | 7% | 100% | 5% | 55% | 100% | 85 nM | – | – | – | – | – | –
CS(=O)(=O)N[C@H](COCc1ccccc1)C(=O)N[C@@H](Cc1ccccc1)C1OCCS1 (stereo partly shown) [Compound 131] | 11% | 55% | 0% | 6% | 21% | – | – | – | – | – | – | –
CS(=O)(=O)N[C@H](Cc1ccc(OCc2ccccc2)cc1)C(=O)N[C@H](C=O)Cc1ccccc1 [Compound 89] (Ms-[dY](Bn)-Phe-aldehyde) | 0% | 97% | 4% | 82% | 100% | 15 nM | – | – | – | – | – | –
O=C[C@H](Cc1ccccc1)NC(=O)[C@@H](COCc1ccccc1)NS(=O)(=O)c1ccc2ccccc2c1 [Compound 52] | 10% | 100% | 0% | 93% | 100% | 28 nM | 4 nM | – | – | – | – | –
CC(C)CC(C)(C=O)NC(=O)[C@@H](COCc1ccccc1)NS(C)(=O)=O (stereo partly shown) [Compound 110] (Ms-[dS](Bn)-[ξαMeL]-aldehyde) | 0% | 83% | 0% | 10% | 12% | – | – | – | – | – | – | –
CC[C@@H](C=O)NC(=O)[C@@H](COCc1ccccc1)NS(C)(=O)=O [Compound 41] (Ms-[dS](Bn)-[Abu]-aldehyde) | 2% | 100% | 0% | 67% | 42% | 50 nM | – | – | – | – | – | –
O=C[C@H](Cc1ccccc1)NC(=O)[C@H]1CCCN1S(=O)(=O)Cc1ccccc1 [Compound 102] | 7% | 73% | 0% | 63% | 69% | 72 nM | – | – | – | – | – | –
O=C[C@H](Cc1ccccc1)NC(=O)[C@@H](COCc1ccccc1)NS(=O)(=O)c1ccc(F)cc1 [Compound 46] | 15% | 100% | 6% | 90% | 100% | 24 nM | – | – | – | – | – | –
CS(=O)(=O)N[C@H](COCc1ccccc1)C(=O)N[C@@H](Cc1ccccc1)C1N(c2ccccc2)CCN1c1ccccc1 [Compound 132] | 0% | 100% | 0% | 63% | 78% | – | – | – | – | – | – | –
